Source: patent US9573899B2, “USP7 inhibitor compounds and methods of use” (Genentech, Inc., priority 2015, dated 2017)

The compounds below were run against T1, USP7, full-length, native C-Terminus (Homo sapiens, UniProt Q93009) (assay: Biochemical USP7 assay with Ubiquitin-Rho110 substrate, compounds pre-incubated with USP7 (USP7_Ub-Rho preInc)). Conditions: compounds pre-mixed with USP7, 1 hour incubation, before substrate; read-out: USP7 Ub-Rho preInc (IC50).
T1 construct: USP7, full-length, native C-Terminus, 0.2 nM
T1 sequence (Q93009 whole entry): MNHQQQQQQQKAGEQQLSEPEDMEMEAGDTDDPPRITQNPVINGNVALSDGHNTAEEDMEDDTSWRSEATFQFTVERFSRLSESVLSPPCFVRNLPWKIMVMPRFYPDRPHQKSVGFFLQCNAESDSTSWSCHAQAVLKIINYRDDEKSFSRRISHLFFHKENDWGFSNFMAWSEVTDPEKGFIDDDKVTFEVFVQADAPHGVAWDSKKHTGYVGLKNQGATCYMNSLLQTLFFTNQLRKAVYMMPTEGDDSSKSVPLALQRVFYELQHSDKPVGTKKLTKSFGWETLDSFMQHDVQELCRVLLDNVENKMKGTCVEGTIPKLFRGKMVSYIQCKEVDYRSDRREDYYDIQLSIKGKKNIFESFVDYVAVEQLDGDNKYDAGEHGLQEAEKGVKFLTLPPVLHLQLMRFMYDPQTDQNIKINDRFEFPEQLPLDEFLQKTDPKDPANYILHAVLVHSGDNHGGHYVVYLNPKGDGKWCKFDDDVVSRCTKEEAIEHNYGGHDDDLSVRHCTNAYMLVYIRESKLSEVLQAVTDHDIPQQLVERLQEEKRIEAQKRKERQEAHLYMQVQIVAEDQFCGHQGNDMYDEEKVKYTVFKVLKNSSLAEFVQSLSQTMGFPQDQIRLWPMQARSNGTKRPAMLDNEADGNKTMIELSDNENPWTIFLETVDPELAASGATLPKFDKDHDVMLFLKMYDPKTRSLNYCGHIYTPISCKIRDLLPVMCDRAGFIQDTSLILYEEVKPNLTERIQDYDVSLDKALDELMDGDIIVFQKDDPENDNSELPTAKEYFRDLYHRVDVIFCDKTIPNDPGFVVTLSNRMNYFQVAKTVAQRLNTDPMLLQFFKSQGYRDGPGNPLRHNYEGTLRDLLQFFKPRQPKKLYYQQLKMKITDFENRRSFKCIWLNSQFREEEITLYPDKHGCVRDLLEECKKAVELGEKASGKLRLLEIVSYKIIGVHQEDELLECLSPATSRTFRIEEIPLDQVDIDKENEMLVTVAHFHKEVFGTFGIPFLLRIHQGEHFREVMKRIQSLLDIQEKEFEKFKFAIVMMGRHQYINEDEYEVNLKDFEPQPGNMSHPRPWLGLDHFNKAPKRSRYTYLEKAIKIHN
Description: Biochemical USP7 assays using Ubiquitin-Rho110 as a substrate: The final assay conditions were as follows: The Reaction Buffer consisted of: 50 mM Tris (pH 7.5), 0.01% (v/v) Triton X-100, 2.5 mM Dithiothreitol, 0.1% (w/v) bovine gamma globulin (Sigma cat #G5009-25G); USP7, full-length, native C-Terminus, 0.2 nM; the substrate, Ubiquitin-Rho110 (Boston Biochem cat #U-555), 1 uM. Reactions were carried out for 1 hour at room temperature, in black 20 μL volume polystyrene ProxiPlate 384 F Plus® (PerkinElmer cat #6008260).
Test compounds, including a control USP7 inhibitor (Ub-aldehyde, Boston Biochem cat #U-201) were serially diluted in DMSO, in 384 well clear V-bottom polypropylene plates (Greiner cat #781280). Compounds in DMSO were diluted 10-fold into Reaction Buffer, to achieve 3-fold the final desired concentration. The substrate, Ubiquitin-Rho110 (Boston Biochem cat #U-555), was prepared at 3 μM (3-fold the final concentration) and 5 ul was dispensed into the reaction plate. 5 ul of the compounds (diluted in Reaction Buffer at 3-fold the final concentration) were transferred to the reaction plate. 5 ul of 0.6 nM USP7 (diluted in Reaction Buffer at 3-fold the final concentration) was transferred to the reaction plate to initiate the reaction. After 1 hour incubation at room temperature the reaction was quenched by the addition of 5 ul of 400 mM acetic acid. The enzymatic product was measured by quantifying the fluorescence signal of cleaved Rhodamine-110 using excitation at 485 nm and emission at 535 nm. When pre-incubation of USP7 with compounds was required, the order of addition of reagents was modified to pre-mix the compounds with USP7 (with a 1 hour incubation period), prior to the addition of the substrate and the initiation of the reaction period. Percentage inhibition values were calculated relative to a no enzyme control and a uninhibited enzyme control. Curve fitting and IC50 calculations were carried out using Genedata Screener software.

| Structure (SMILES) | IC50 [µM] |
| --- | --- |
| CCCNc1ncc(-c2ccc(O)cc2)c(CC)c1-c1ccc(O)cc1 [Compound 15, 4-[4-ethyl-5-(4-hydroxyphenyl)-6-(propylamino)-3-pyridyl]phenol] | 10.1 |
| CCc1c(-c2ccc(O)cc2)cnc(N)c1-c1ccccc1 [Compound 16, 4-(6-amino-4-ethyl-5-phenyl-3-pyridyl)phenol] | 60.7 |
| CCc1c(-c2ccc(O)cc2)cnc(N)c1-c1cccc(C#N)c1 [Compound 19, 3-[2-amino-4-ethyl-5-(4-hydroxyphenyl)-3-pyridyl]benzonitrile] | 9.9 |
| CCc1c(-c2ccc(O)cc2)cnc(N)c1-c1ccc(NC(=O)OC(C)(C)C)cc1 [Compound 21, tert-butyl N-[4-[2-amino-4-ethyl-5-(4-hydroxyphenyl)-3-pyridyl]phenyl]carbamate] | > 20 |
| CCc1c(-c2ccc(O)cc2)cnc(N)c1-c1cccc(CNC(=O)OC(C)(C)C)c1 [Compound 23, tert-butyl N-[[3-[2-amino-4-ethyl-5-(4-hydroxyphenyl)-3-pyridyl]phenyl]methyl]carbamate] | > 6.3 |
| CCc1c(-c2ccc(O)cc2)cnc(N)c1-c1cccc(CN2CCOCC2)c1 [Compound 26, 4-[6-amino-4-ethyl-5-[3-(morpholinomethyl)phenyl]-3-pyridyl]phenol] | 145 |
| CCc1c(-c2ccc(O)cc2)cnc(N)c1-c1cccc(CC#N)c1 [Compound 27, 2-[3-[2-amino-4-ethyl-5-(4-hydroxyphenyl)-3-pyridyl]phenyl]acetonitrile] | 48.7 |
| CCc1c(-c2ccc(O)cc2)cnc(N)c1-c1cncc(C#N)c1 [Compound 29, 5-[2-amino-4-ethyl-5-(4-hydroxyphenyl)-3-pyridyl]pyridine-3-carbonitrile] | 18.6 |
| CCc1c(-c2ccc(O)cc2)cnc(N)c1-c1ccc(NS(C)(=O)=O)cc1 [Compound 30, N-[4-[2-amino-4-ethyl-5-(4-hydroxyphenyl)-3-pyridyl]phenyl]methanesulfonamide] | 19.6 |
| CCc1c(-c2ccc(O)cc2)cnc(N)c1-c1cccc(NC(=O)OC(C)(C)C)c1 [Compound 31, tert-butyl N-[3-[2-amino-4-ethyl-5-(4-hydroxyphenyl)-3-pyridyl]phenyl]carbamate] | > 20 |
| CCc1c(-c2ccc(C)nc2)cnc(N)c1-c1ccc(O)cc1 [Compound 35, 4-[2-amino-4-ethyl-5-(6-methyl-3-pyridyl)-3-pyridyl]phenol] | 31.2 |
| CCc1c(-c2ccc(C)cc2)cnc(N)c1-c1ccc(O)cc1 [Compound 36, 4-[2-amino-4-ethyl-5-(p-tolyl)-3-pyridyl]phenol] | 18.1 |
| CCc1c(-c2ccncc2)cnc(N)c1-c1ccc(O)cc1 [Compound 38, 4-[2-amino-4-ethyl-5-(4-pyridyl)-3-pyridyl]phenol] | 52.4 |
| CCc1c(-c2ccc(O)cc2)cnc(N)c1-c1cccc(NS(C)(=O)=O)c1 [Compound 41, N-[3-[2-amino-4-ethyl-5-(4-hydroxyphenyl)-3-pyridyl]phenyl]methanesulfonamide] | 118 |
| CCc1c(-c2cccc(N3CCNCC3)c2)cnc(N)c1-c1ccc(O)cc1 [Compound 42, 4-[2-amino-4-ethyl-5-(3-piperazin-1-ylphenyl)-3-pyridyl]phenol] | 165 |
| CCc1c(-c2ccc(Cl)c(C)c2)cnc(N)c1-c1ccc(O)cc1 [Compound 44, 4-[2-amino-5-(4-chloro-3-methyl-phenyl)-4-ethyl-3-pyridyl]phenol] | > 20 |
| CCc1c(-c2cccc(C(N)=O)c2)cnc(N)c1-c1ccc(O)cc1 [Compound 46, 3-[6-amino-4-ethyl-5-(4-hydroxyphenyl)-3-pyridyl]benzamide] | 114 |
| CCc1c(-c2ccccc2F)cnc(N)c1-c1ccc(O)cc1 [Compound 50, 4-[2-amino-4-ethyl-5-(2-fluorophenyl)-3-pyridyl]phenol] | 14.2 |
| CCc1c(-c2ccc(C#N)cc2)cnc(N)c1-c1ccc(O)cc1 [Compound 51, 4-[6-amino-4-ethyl-5-(4-hydroxyphenyl)-3-pyridyl]benzonitrile] | 44.2 |
| CCc1c(-c2cccc(OC)c2)cnc(N)c1-c1ccc(O)cc1 [Compound 52, 4-[2-amino-4-ethyl-5-(3-methoxyphenyl)-3-pyridyl]phenol] | 50.1 |
| CCc1c(-c2ccc(OC)cc2)cnc(N)c1-c1ccc(O)cc1 [Compound 53, 4-[2-amino-4-ethyl-5-(4-methoxyphenyl)-3-pyridyl]phenol] | > 20 |

More lines, now with the values ahead:

| IC50 [µM] | Structure (SMILES) |
| --- | --- |
| 136 | CCc1c(-c2cccc(NC(C)=O)c2)cnc(N)c1-c1ccc2cn[nH]c2c1 [Compound 14, N-[3-[6-amino-4-ethyl-5-(1H-indazol-6-yl)-3-pyridyl]phenyl]acetamide] |
| > 20 | CCc1c(-c2ccc(O)cc2)cnc(N)c1-c1ccc(F)c(F)c1 [Compound 18, 4-[6-amino-5-(3,4-difluorophenyl)-4-ethyl-3-pyridyl]phenol] |
| > 63.3 | CCc1c(-c2ccc(O)cc2)cnc(N)c1-c1cccc(N2CCOCC2)c1 [Compound 22, 4-[6-amino-4-ethyl-5-(3-morpholinophenyl)-3-pyridyl]phenol] |
| > 63.3 | CCc1c(-c2ccc(O)cc2)cnc(N)c1-c1cccc(COC)c1 [Compound 24, 4-[6-amino-4-ethyl-5-[3-(methoxymethyl)phenyl]-3-pyridyl]phenol] |
| > 20 | CCc1c(-c2ccc(O)cc2)cnc(N)c1-c1ccc(N(C)C(=O)OC(C)(C)C)cc1 [Compound 28, tert-butyl N-[4-[2-amino-4-ethyl-5-(4-hydroxyphenyl)-3-pyridyl]phenyl]-N-methyl-carbamate] |
| 69.9 | CCc1c(-c2cncnc2)cnc(N)c1-c1ccc(O)cc1 [Compound 32, 4-(2-amino-4-ethyl-5-pyrimidin-5-yl-3-pyridyl)phenol] |
| > 63.3 | CCc1c(-c2ccccc2C)cnc(N)c1-c1ccc(O)cc1 [Compound 33, 4-[2-amino-4-ethyl-5-(o-tolyl)-3-pyridyl]phenol] |
| 19.9 | CCc1c(-c2ccc(F)cc2)cnc(N)c1-c1ccc(O)cc1 [Compound 34, 4-[2-amino-4-ethyl-5-(4-fluorophenyl)-3-pyridyl]phenol] |
| 17.8 | CCc1c(-c2ccccc2)cnc(N)c1-c1ccc(O)cc1 [Compound 37, 4-(2-amino-4-ethyl-5-phenyl-3-pyridyl)phenol] |
| 41 | CCc1c(-c2cccnc2)cnc(N)c1-c1ccc(O)cc1 [Compound 39, 4-[2-amino-4-ethyl-5-(3-pyridyl)-3-pyridyl]phenol] |
| 19.9 | CCc1c(-c2ccc(O)cc2)cnc(NCC2CC2)c1-c1ccc(O)cc1 [Compound 40, 4-[6-(cyclopropylmethylamino)-4-ethyl-5-(4-hydroxyphenyl)-3-pyridyl]phenol] |
| 6.8 | CCc1c(-c2ccc(O)cc2)cnc(NC)c1-c1ccc(O)cc1 [Compound 43, 4-[4-ethyl-5-(4-hydroxyphenyl)-6-(methylamino)-3-pyridyl]phenol] |
| > 20 | CCc1c(-c2cccc(C(C)C)c2)cnc(N)c1-c1ccc(O)cc1 [Compound 47, 4-[2-amino-4-ethyl-5-(3-isopropylphenyl)-3-pyridyl]phenol] |
| 11.6 | CCc1c(-c2ccc(F)c(F)c2)cnc(N)c1-c1ccc(O)cc1 [Compound 48, 4-[2-amino-5-(3,4-difluorophenyl)-4-ethyl-3-pyridyl]phenol] |
| 5.4 | CCc1c(-c2cccc(C#N)c2)cnc(N)c1-c1ccc(O)cc1 [Compound 49, 3-[6-amino-4-ethyl-5-(4-hydroxyphenyl)-3-pyridyl]benzonitrile] |
